Test results from patent publication US9149476B2, “Thiochromene derivatives as HIF hydroxylase inhibitors” (FibroGen, Inc., priority 2008, dated 2015).
Counter-ions that a name gives are not always drawn.

Target: T1, HIF-PH2 (EGLN1) (Homo sapiens, UniProt Q9GZT9)
T1 construct: made in house; host or cells: insect Hi5 cells
Experiment: HIF-PH assay (14CO2 capture, peptide-dependent turnover)
Format: biochemical
Conditions: compound concentration 7.4 μM
Excerpt: Ketoglutaric acid α-[1-^14C]-sodium salt, alpha-ketoglutaric acid sodium salt, and HPLC purified peptide may be obtained from commercial sources, e.g., Perkin-Elmer (Wellesley Mass.), Sigma-Aldrich, and SynPep Corp. (Dublin Calif.), respectively. Peptides for use in the assay may be fragments of HIFα as described above or as disclosed in International Publication WO 2005/118836, incorporated by reference herein. For example, a HIF peptide for use in the HIF-PH assay is [methoxycoumarin]-DLDLEALAPYIPADDDFQL-amide (SEQ ID NO:2). HIF-PH, e.g., HIF-PH2 (EGLN1), can be expressed in, e.g., insect Hi5 cells, and partially purified, e.g., through a SP ion exchange chromatography column. Enzyme activity is determined by capturing ^14CO2 using an assay described by Kivirikko and Myllyla (1982, Methods Enzymol. 82:245-304). Assay reactions contain 50 mM HEPES (pH 7.4), 100 μM α-ketoglutaric acid sodium salt, 0.30 μCi/mL ketoglutaric acid α-[1-^14C]-sodium salt, 40 μM FeSO4, 1 mM ascorbate, 1541.8 units/mL Catalase, with or without 50 μM peptide substrate and various concentrations of compound of the invention. Reactions are initiated by addition of HIF-PH enzyme.
The peptide-dependent percent turnover is calculated by subtracting percent turnover in the absence of peptide from percent turnover in the presence of substrate peptide. Percent inhibition and IC50 are calculated using peptide-dependent percent turnover at given inhibitor concentrations. Calculation of IC50 values for each inhibitor is conducted using GraFit software (Erithacus Software Ltd., Surrey UK).
Representative compounds of the invention were analyzed using the HIF-PH assay described above. Table 1 presents enzyme inhibition data for exemplary compounds against HIF-PH2, a representative HIF prolyl hydroxylase. By inhibiting HIF prolyl hydroxylase, compounds of the invention stabilize HIFα, which then combines with HIFβ to form an active transcription factor that increases expression of various genes involved in numerous beneficial cellular processes.

T1 sequence (Q9GZT9 whole entry): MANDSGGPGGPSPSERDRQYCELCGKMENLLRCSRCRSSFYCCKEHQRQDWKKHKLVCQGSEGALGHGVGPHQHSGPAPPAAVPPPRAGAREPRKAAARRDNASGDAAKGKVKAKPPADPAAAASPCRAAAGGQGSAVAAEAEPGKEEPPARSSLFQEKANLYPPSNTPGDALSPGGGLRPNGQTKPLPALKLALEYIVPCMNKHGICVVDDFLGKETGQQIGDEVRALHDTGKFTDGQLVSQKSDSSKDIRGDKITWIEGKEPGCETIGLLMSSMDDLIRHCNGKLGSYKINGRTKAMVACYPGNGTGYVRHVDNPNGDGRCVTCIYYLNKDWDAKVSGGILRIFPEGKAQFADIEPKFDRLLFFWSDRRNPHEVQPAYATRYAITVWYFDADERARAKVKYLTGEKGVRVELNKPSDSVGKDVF

| inhibition at 7.4 µM [%] | SMILES |
| --- | --- |
| 99.7 | O=C(O)CNC(=O)c1c(O)c2cc(Cl)cc(C#Cc3ccccc3)c2sc1=O [Example 56, [(6-Chloro-4-hydroxy-2-oxo-8-phenylethynyl-2H-thiochromene-3-carbonyl)-amino]-acetic acid] |
| 96.8 | O=C(O)CNC(=O)c1c(O)c2cc(Cl)ccc2sc1=O [Example 58, [(6-Chloro-4-hydroxy-2-oxo-2H-thiochromene-3-carbonyl)-amino]-acetic acid] |

Same assay, conditions: compound concentration 12.5 μM

| inhibition at 12.5 µM [%] | SMILES |
| --- | --- |
| 94.5 | Cc1ccc2c(O)c(C(=O)NCC(=O)O)c(=O)sc2c1 [Example 6, [(4-Hydroxy-7-methyl-2-oxo-2H-thiochromene-3-carbonyl)-amino]-acetic acid] |
| 97.6 | O=C(O)CNC(=O)c1c(O)c2ccc(Br)cc2sc1=O [Example 5, [(7-bromo-4-hydroxy-2-oxo-2H-thiochromene-3-carbonyl)-amino]-acetic acid] |

Same assay, conditions: compound concentration 50 μM

| SMILES | inhibition at 50 µM [%] |
| --- | --- |
| Cc1cc(Cl)cc2c(O)c(C(=O)NCC(=O)O)c(=O)sc12 [Example 22, [(6-Chloro-4-hydroxy-8-methyl-2-oxo-2H-thiochromene-3-carbonyl)-amino]-acetic acid] | 95.6 |
| O=C(O)CNC(=O)c1c(O)c2cccc(-c3cc(C(F)(F)F)cc(C(F)(F)F)c3)c2sc1=O [Example 48, {[8-(3,5-Bis-trifluoromethyl-phenyl)-4-hydroxy-2-oxo-2H-thiochromene-3-carbonyl]-amino}-acetic acid] | 100 |
| O=C(O)CNC(=O)c1c(O)c2cccc(-c3cccnc3)c2sc1=O [Example 50, [(4-Hydroxy-2-oxo-8-pyridin-3-yl-2H-thiochromene-3-carbonyl)-amino]-acetic acid] | 98.8 |
| O=C(O)CNC(=O)c1c(O)c2cc(Cl)cc(-c3cc(C(F)(F)F)cc(C(F)(F)F)c3)c2sc1=O [Example 43, {[8-(3,5-Bis-trifluoromethyl-phenyl)-6-chloro-4-hydroxy-2-oxo-2H-thiochromene-3-carbonyl]-amino}-acetic acid] | 100 |
| O=C(O)CNC(=O)c1c(O)c2cc(NC(=O)c3ccccc3)ccc2sc1=O [Example 41, [(6-Benzoylamino-4-hydroxy-2-oxo-2H-thiochromene-3-carbonyl)-amino]-acetic acid] | 100 |
| Cn1nc(C(F)(F)F)cc1-c1cc(Cl)cc2c(O)c(C(=O)NCC(=O)O)c(=O)sc12 [Example 45, {[6-Chloro-4-hydroxy-8-(2-methyl-5-trifluoromethyl-2H-pyrazol-3-yl)-2-oxo-2H-thiochromene-3-carbonyl]-amino}-acetic acid] | 100 |
| Cc1cccc2c(O)c(C(=O)NCC(=O)O)c(=O)sc12 [Example 23, [(4-Hydroxy-8-methyl-2-oxo-2H-thiochromene-3-carbonyl)-amino]-acetic acid] | 97.5 |
| O=C(O)CNC(=O)c1c(O)c2cc(OCC3CCCCC3)ccc2sc1=O [Example 63, [(6-Cyclohexylmethoxy-4-hydroxy-2-oxo-2H-thiochromene-3-carbonyl)-amino]-acetic acid] | 98.9 |
| C[C@H](NC(=O)c1c(O)c2ccc(Cl)cc2sc1=O)C(=O)O [Example 61, 2-(S)-[(7-Chloro-4-hydroxy-2-oxo-2H-thiochromene-3-carbonyl)-amino]-propionic acid] | 100 |

Next, values leading:

| inhibition at 50 µM [%] | SMILES |
| --- | --- |
| 99 | O=C(O)CNC(=O)c1c(O)c2ccc(C3CC3)cc2sc1=O [Example 53, [(7-Cyclopropyl-4-hydroxy-2-oxo-2H-thiochromene-3-carbonyl)-amino]-acetic acid] |
| 92.1 | Cc1ccc(-c2ccc3c(O)c(C(=O)NCC(=O)O)c(=O)sc3c2)cc1 [Example 19, [(4-Hydroxy-2-oxo-7-p-tolyl-2H-thiochromene-3-carbonyl)-amino]-acetic acid] |
| 99.7 | O=C(O)CNC(=O)c1c(O)c2ccc(-c3ccc(F)cc3)cc2sc1=O [Example 13, {[7-(4-Fluoro-phenyl)-4-hydroxy-2-oxo-2H-thiochromene-3-carbonyl]-amino}-acetic acid] |
| 92.8 | O=C(O)CNC(=O)c1c(O)c2ccc(-c3ccc(F)c(Cl)c3)cc2sc1=O [Example 17, {[7-(3-Chloro-4-fluoro-phenyl)-4-hydroxy-2-oxo-2H-thiochromene-3-carbonyl]-amino}-acetic acid] |
| 95.8 | O=C(O)CNC(=O)c1c(O)c2ccc(-c3ccc(C(F)(F)F)cc3)cc2sc1=O [Example 11, {[4-Hydroxy-2-oxo-7-(4-trifluoromethyl-phenyl)-2H-thiochromene-3-carbonyl]-amino}-acetic acid] |
| 95.2 | O=C(O)CNC(=O)c1c(O)c2ccc(-c3cccnc3)cc2sc1=O [Example 15, [(4-Hydroxy-2-oxo-7-pyridin-3-yl-2H-thiochromene-3-carbonyl)-amino]-acetic acid, sodium salt] |
| 96.5 | O=C(O)CNC(=O)c1c(O)c2ccc(Cl)cc2sc1=O [Example 60, [(7-Chloro-4-hydroxy-2-oxo-2H-thiochromene-3-carbonyl)-amino]-acetic acid] |

Same assay, conditions: compound concentration 67 μM

| inhibition at 67 µM [%] | SMILES |
| --- | --- |
| 93.2 | O=C(O)CNC(=O)c1c(O)c2ccc(-c3ccccc3C(F)(F)F)cc2sc1=O [Example 32, {[4-Hydroxy-2-oxo-7-(2-trifluoromethyl-phenyl)-2H-thiochromene-3-carbonyl]-amino}-acetic acid] |
| 98.4 | O=C(O)CNC(=O)c1c(O)c2cc(-c3cccc(F)c3)ccc2sc1=O [Example 37, {[6-(3-Fluoro-phenyl)-4-hydroxy-2-oxo-2H-thiochromene-3-carbonyl]-amino}-acetic acid] |
| 100 | O=C(O)CNC(=O)c1c(O)c2cc(Br)ccc2sc1=O [Example 27, [(6-Bromo-4-hydroxy-2-oxo-2H-thiochromene-3-carbonyl)-amino]-acetic acid] |
| 96.6 | O=C(O)CNC(=O)c1c(O)c2cc(-c3ccc(F)cc3)ccc2sc1=O [Example 38, {[6-(4-Fluoro-phenyl)-4-hydroxy-2-oxo-2H-thiochromene-3-carbonyl]-amino}-acetic acid] |
| 99.8 | O=C(O)CNC(=O)c1c(O)c2cc(-c3ccccc3C(F)(F)F)ccc2sc1=O [Example 34, {[4-Hydroxy-2-oxo-6-(2-trifluoromethyl-phenyl)-2H-thiochromene-3-carbonyl]-amino}-acetic acid] |
| 99.1 | O=C(O)CNC(=O)c1c(O)c2ccc(-c3cccc(F)c3)cc2sc1=O [Example 30, {[7-(3-Fluoro-phenyl)-4-hydroxy-2-oxo-2H-thiochromene-3-carbonyl]-amino}-acetic acid] |
